Drawing on BindingDB's records for doi:10.1021/jm011081s (The Institute of Cancer Research, 2002), this text covers IC50 for one compound.

SMILES strings stand for the structures. pIC50: −log10 of the molar value.

As a reminder, the pIC50 is the IC50 on a negative log10 scale, so that one unit is a factor of ten. A higher pIC50 goes with a low IC50.

The assay in a line: Growth inhibitory activity against mouse lymphoblastoid L1210TS cell line was determined as inhibition of thymidylate synthase.

As to `C#CCN(Cc1cc2c(=O)n(C)c(CN(CC)CC)nc2cc1Cl)c1ccc(C(=O)NCc2cccnc2)cc1` [4-[(7-Chloro-2-diethylaminomethyl-3-methyl-4-oxo-3,4-dihydro-quinazolin-6-ylmethyl)-prop-2-ynyl-amino]-N-pyridin-3-ylmethyl-benzamide], the negative logarithm of the IC50 (pIC50) was less than 4.30.
